From patent US20240208992A1, “MACROCYCLES AS CFTR MODULATORS” (Idorsia Pharmaceuticals Ltd, priority 2021, published 2024) come the findings set out here.

The experiment addresses human F508del-CFTR (Homo sapiens, UniProt P13569, DEL508-508). The experiment can be described thus: F508del-CFTR cell surface expression (corrector activity), DiscoveRx ß-galactosidase complementation chemiluminescence assay in recombinant U2OS cell line.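 For all read-outs here: U2OS cells co-expressing ProLink-tagged F508del-CFTR and a membrane-anchored enzyme acceptor, where more surface CFTR restores β-galactosidase activity measured by chemiluminescence.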 Conditions: U2OS cell line, 16h compound incubation; for EC50: EC50, F508del-CFTR cell surface expression, geomean values; for Emax: U2OS, in relation to the Emax of the corrector lumacaftor (=100%), arithmetic mean values.

Sequence of human F508del-CFTR (P13569 with tags, fused parts or gaps DEL508-508): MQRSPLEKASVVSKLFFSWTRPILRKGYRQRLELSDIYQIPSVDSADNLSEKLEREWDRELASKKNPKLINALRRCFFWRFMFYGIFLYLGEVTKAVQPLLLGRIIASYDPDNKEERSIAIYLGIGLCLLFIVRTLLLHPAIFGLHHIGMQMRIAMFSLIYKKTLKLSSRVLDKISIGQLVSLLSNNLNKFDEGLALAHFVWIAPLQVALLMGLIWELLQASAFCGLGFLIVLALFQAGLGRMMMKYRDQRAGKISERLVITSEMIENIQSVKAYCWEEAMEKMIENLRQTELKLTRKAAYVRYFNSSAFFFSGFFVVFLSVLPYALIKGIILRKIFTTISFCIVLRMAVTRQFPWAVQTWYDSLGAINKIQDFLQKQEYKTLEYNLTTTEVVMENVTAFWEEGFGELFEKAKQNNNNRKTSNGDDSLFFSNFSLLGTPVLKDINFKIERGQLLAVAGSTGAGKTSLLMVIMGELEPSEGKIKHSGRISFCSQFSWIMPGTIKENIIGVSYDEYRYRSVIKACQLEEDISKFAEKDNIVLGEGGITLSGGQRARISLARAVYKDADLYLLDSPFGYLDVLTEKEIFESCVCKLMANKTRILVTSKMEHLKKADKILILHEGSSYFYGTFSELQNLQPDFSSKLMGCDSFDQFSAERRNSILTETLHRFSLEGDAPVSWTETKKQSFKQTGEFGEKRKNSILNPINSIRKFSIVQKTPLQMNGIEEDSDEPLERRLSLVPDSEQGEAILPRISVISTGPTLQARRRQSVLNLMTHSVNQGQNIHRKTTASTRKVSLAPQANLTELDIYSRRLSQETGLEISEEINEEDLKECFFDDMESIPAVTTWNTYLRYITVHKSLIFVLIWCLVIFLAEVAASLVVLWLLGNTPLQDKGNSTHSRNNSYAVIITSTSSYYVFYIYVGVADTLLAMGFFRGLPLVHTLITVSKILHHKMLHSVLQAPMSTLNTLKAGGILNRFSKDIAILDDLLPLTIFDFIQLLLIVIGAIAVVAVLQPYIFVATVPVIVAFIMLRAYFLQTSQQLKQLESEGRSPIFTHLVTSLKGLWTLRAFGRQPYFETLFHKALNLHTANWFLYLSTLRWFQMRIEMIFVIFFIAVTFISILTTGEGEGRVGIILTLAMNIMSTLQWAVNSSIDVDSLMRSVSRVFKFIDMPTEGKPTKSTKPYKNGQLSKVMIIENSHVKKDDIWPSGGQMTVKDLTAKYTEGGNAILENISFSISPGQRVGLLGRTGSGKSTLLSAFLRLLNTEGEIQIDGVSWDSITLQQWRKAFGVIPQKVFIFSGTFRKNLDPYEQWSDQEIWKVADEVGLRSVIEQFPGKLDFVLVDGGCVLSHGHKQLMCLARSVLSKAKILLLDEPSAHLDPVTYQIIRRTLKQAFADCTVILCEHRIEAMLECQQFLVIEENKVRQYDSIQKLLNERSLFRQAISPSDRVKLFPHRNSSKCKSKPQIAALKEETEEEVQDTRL

As a reminder, the EC50 is the midpoint of the concentration-response curve. In general, Emax refers to the maximal effect, on the per cent scale that the assay sets. As for `CC(C)C[C@H]1C(=O)N2CCCC[C@@H]2C(=O)N[C@H](Cc2ccccc2)COc2cnc3ccccc3c2C(=O)N[C@H](C(=O)NCCc2c(F)cc(Br)cc2F)CC(=O)N1C` [Example 99, (9S,13S,19aR,22R)-22-benzyl-N-(4-bromo-2,6-difluorophenethyl)-13-isobutyl-12-methyl-7,11,14,20-tetraoxo-7,8,9,10,11,12,13,14,17,18,19,19a,20,21,22,23-hexadecahydro-16H-pyrido[2′,11:6,7][1]oxa[4,7,10,14]tetraazacycloheptadecino[17,16-c]quinoline-9-carboxamide], the EC50 turned out to be 205 nM and the Emax turned out to be 254%.
For `COc1ccc(CCNC(=O)[C@@H]2CC(=O)N(C)[C@@H](CC(C)C)C(=O)N3CCCC[C@@H]3C(=O)N[C@H](Cc3ccccc3)COc3cnc4ccccc4c3C(=O)N2)cc1F` [Example 100, (9S,13S,19aR,22R)-22-benzyl-N-(3-fluoro-4-methoxyphenethyl)-13-isobutyl-12-methyl-7,11,14,20-tetraoxo-7,8,9,10,11,12,13,14,17,18,19,19a,20,21,22,23-hexadecahydro-16H-pyrido[2′,11:6,7][1]oxa[4,7,10,14]tetraazacycloheptadecino[17,16-c]quinoline-9-carboxamide] the same measures were 184 nM and 273%.
The like results for `CC(C)C[C@H]1C(=O)N(C)CC(=O)N[C@H](Cc2ccccc2)COc2cc3c(cc2C(=O)N[C@H](C(=O)NCCc2ccc4c(c2)OCCCO4)CC(=O)N1C)OCO3` [Example 101, (7R,13S,17S)-7-benzyl-N-(2-(3,4-dihydro-2H-benzo[b][1,4]dioxepin-7-yl)ethyl)-13-isobutyl-11,14-dimethyl-9,12,15,19-tetraoxo-6,7,8,9,10,11,12,13,14,15,16,17,18,19-tetradecahydro-[1,3]dioxolo[4′,5′:4,5]benzo[1,2-p][1]oxa[4,7,10,14]tetraazacycloheptadecine-17-carboxamide] were, in that order, 201 nM and 163%.
The like results for `Cc1ccc(F)c(CCNC(=O)[C@@H]2CC(=O)N(C)[C@@H](CC(C)C)C(=O)N3CCCC[C@@H]3C(=O)N[C@H](Cc3ccccc3)COc3cnc4ccccc4c3C(=O)N2)c1F` [Example 102, (9S,13S,19aR,22R)-22-benzyl-N-(2,6-difluoro-3-methylphenethyl)-13-isobutyl-12-methyl-7,11,14,20-tetraoxo-7,8,9,10,11,12,13,14,17,18,19,19a,20,21,22,23-hexadecahydro-16H-pyrido[2′,11:6,7][1]oxa[4,7,10,14]tetraazacycloheptadecino[17,16-c]quinoline-9-carboxamide] were, in that order, 225 nM and 332%.
On to `CC(C)C[C@H]1C(=O)N2CCCC[C@@H]2C(=O)N[C@H](Cc2ccccc2)COc2cnc3ccccc3c2C(=O)N[C@H](C(=O)NCCc2ccns2)CC(=O)N1C` [Example 103, (9S,13S,19aR,22R)-22-benzyl-13-isobutyl-N-(2-(isothiazol-5-yl)ethyl)-12-methyl-7,11,14,20-tetraoxo-7,8,9,10,11,12,13,14,17,18,19,19a,20,21,22,23-hexadecahydro-16H-pyrido[2′,1′:6,7][1]oxa[4,7,10,14]tetraazacycloheptadecino[17,16-c]quinoline-9-carboxamide], for which the EC50 was 499 nM and the Emax was 256%.
For `Cc1cccc(F)c1CCNC(=O)[C@@H]1CC(=O)N(C)[C@@H](CC(C)C)C(=O)N2CCCC[C@@H]2C(=O)N[C@H](Cc2ccccc2)COc2cnc3ccccc3c2C(=O)N1` [Example 104, (9S,13S,19aR,22R)-22-benzyl-N-(2-fluoro-6-methylphenethyl)-13-isobutyl-12-methyl-7,11,14,20-tetraoxo-7,8,9,10,11,12,13,14,17,18,19,19a,20,21,22,23-hexadecahydro-16H-pyrido[2′,11:6,7][1]oxa[4,7,10,14]tetraazacycloheptadecino[17,16-c]quinoline-9-carboxamide] the same measures were 211 nM and 204%.
For `CC(C)C[C@H]1C(=O)N2CCCC[C@@H]2C(=O)N[C@H](Cc2ccccc2)COc2cnc3ccccc3c2C(=O)N[C@H](C(=O)NCCc2cc(C3CC3)on2)CC(=O)N1C` [Example 105, (9S,13S,19aR,22R)-22-benzyl-N-(2-(5-cyclopropylisoxazol-3-yl)ethyl)-13-isobutyl-12-methyl-7,11,14,20-tetraoxo-7,8,9,10,11,12,13,14,17,18,19,19a,20,21,22,23-hexadecahydro-16H-pyrido[2′,1′:6,7][1]oxa[4,7,10,14]tetraazacycloheptadecino[17,16-c]quinoline-9-carboxamide] the same measures were 173 nM and 351%.
The like results for `CC(C)C[C@H]1C(=O)N2CCOC[C@@H]2C(=O)N[C@H](Cc2ccccc2)COc2cnc3ccccc3c2C(=O)N[C@H](C(=O)NCCc2cc(C3CC3)on2)CC(=O)N1C` [Example 106, (9S,13S,19aR,22R)-22-benzyl-N-(2-(5-cyclopropylisoxazol-3-yl)ethyl)-13-isobutyl-12-methyl-7,11,14,20-tetraoxo-7,8,9,10,11,12,13,14,16,17,19,19a,20,21,22,23-hexadecahydro-[1,4]oxazino[3′,4′:6,7][1]oxa[4,7,10,14]tetraazacycloheptadecino[17,16-c]quinoline-9-carboxamide] were, in that order, 864 nM and 308%.
With `CC(C)C[C@H]1C(=O)N2CCOC[C@@H]2C(=O)N[C@H](Cc2ccccc2)COc2cnc3ccccc3c2C(=O)N[C@H](C(=O)NCCc2cc(C(C)(C)C)on2)CC(=O)N1C` [Example 107, (9S,13S,19aR,22R)-22-benzyl-N-(2-(5-(tert-butyl)isoxazol-3-yl)ethyl)-13-isobutyl-12-methyl-7,11,14,20-tetraoxo-7,8,9,10,11,12,13,14,16,17,19,19a,20,21,22,23-hexadecahydro-[1,4]oxazino[3′,4′:6,7][1]oxa[4,7,10,14]tetraazacycloheptadecino[17,16-c]quinoline-9-carboxamide], the EC50 turned out to be 794 nM and the Emax was determined as 257%.
The like results for `CC(C)C[C@H]1C(=O)N(C)C2(CC2)C(=O)N[C@H](Cc2ccccc2)COc2cnc3ccccc3c2C(=O)N[C@H](C(=O)NCCc2ccccc2)CC(=O)N1C` [Example 108, (3′S,7′S,13′R)-13′-benzyl-7′-isobutyl-6′,9′-dimethyl-1′,5′,8′,11′-tetraoxo-N-phenethyl-2′,3′,4′,5′,6′,7′,8′,9′,11′,12′,13′,14′-dodecahydro-1′H-spiro[cyclopropane-1,10′-[1]oxa[4,7,10,14]tetraazacycloheptadecino[17,16-c]quinoline]-3′-carboxamide] were, in that order, 581 nM and 222%.
The like results for `COc1cc(CCNC(=O)[C@@H]2CC(=O)N(C)[C@@H](CC(C)C)C(=O)N(C)C3(CC3)C(=O)N[C@H](Cc3ccccc3)COc3cnc4ccccc4c3C(=O)N2)cc(OC)c1` [Example 109, (3′S,7′S,13′R)-13′-benzyl-N-(3,5-dimethoxyphenethyl)-7′-isobutyl-6′,9′-dimethyl-1′,5′,8′,11′-tetraoxo-2′,3′,4′,5′,6′,7′,8′,9′,11′,12′,13′,14′-dodecahydro-1′H-spiro[cyclopropane-1,10′-[1]oxa[4,7,10,14]tetraazacycloheptadecino[17,16-c]quinoline]-3′-carboxamide] were, in that order, 231 nM and 321%.
For the compound `CC(C)C[C@H]1C(=O)N(C)C2(CC2)C(=O)N[C@H](Cc2ccccc2)COc2cnc3ccccc3c2C(=O)N[C@H](C(=O)NCCc2c(F)cccc2F)CC(=O)N1C` [Example 110, (3′S,7′S,13′R)-13′-benzyl-N-(2,6-difluorophenethyl)-7′-isobutyl-6′,9′-dimethyl-1′,5′,8′,11′-tetraoxo-2′,3′,4′,5′,6′,7′,8′,9′,11′,12′,13′,14′-dodecahydro-1′H-spiro[cyclopropane-1,10′-[1]oxa[4,7,10,14]tetraazacycloheptadecino[17,16-c]quinoline]-3′-carboxamide], the EC50 was determined as 478 nM and the Emax turned out to be 261%.
With `COc1ccc(CCNC(=O)[C@@H]2CC(=O)N(C)[C@@H](CC(C)C)C(=O)N(C)C3(CC3)C(=O)N[C@H](Cc3ccccc3)COc3cnc4ccccc4c3C(=O)N2)cc1` [Example 111, (3′S,7′S,13′R)-13′-benzyl-7′-isobutyl-N-(4-methoxyphenethyl)-6′,9′-dimethyl-1′,5′,8′,11′-tetraoxo-2′,3′,4′,5′,6′,7′,8′,9′,11′,12′,13′,14′-dodecahydro-1′H-spiro[cyclopropane-1,10′-[1]oxa[4,7,10,14]tetraazacycloheptadecino[17,16-c]quinoline]-3′-carboxamide], the EC50 is 392 nM and the Emax was found to be 242%.
The like results for `Cc1cccc(CCNC(=O)[C@@H]2CC(=O)N(C)[C@@H](CC(C)C)C(=O)N(C)C3(CC3)C(=O)N[C@H](Cc3ccccc3)COc3cnc4ccccc4c3C(=O)N2)c1` [Example 112, (3′S,7′S,13′R)-13′-benzyl-7′-isobutyl-6′,9′-dimethyl-N-(3-methylphenethyl)-1′,5′,8′,11′-tetraoxo-2′,3′,4′,5′,6′,7′,8′,9′,11′,12′,13′,14′-dodecahydro-1′H-spiro[cyclopropane-1,10′-[1]oxa[4,7,10,14]tetraazacycloheptadecino[17,16-c]quinoline]-3′-carboxamide] were, in that order, 817 nM and 200%.
For `CC(C)C[C@H]1C(=O)N(C)C2(CC2)C(=O)N[C@H](Cc2ccccc2)COc2cnc3ccccc3c2C(=O)N[C@H](C(=O)NCCc2ccc(F)c(F)c2)CC(=O)N1C` [Example 113, (3′S,7′S,13′R)-13′-benzyl-N-(3,4-difluorophenethyl)-7′-isobutyl-6′,9′-dimethyl-1′,5′,8′,11′-tetraoxo-2′,3′,4′,5′,6′,7′,8′,9′,11′,12′,13′,14′-dodecahydro-1′H-spiro[cyclopropane-1,10′-[1]oxa[4,7,10,14]tetraazacycloheptadecino[17,16-c]quinoline]-3′-carboxamide] the same measures were 369 nM and 158%.
